Test results reported in ChEMBL document CHEMBL3885861, “Open TG-GATES”.

Organism: Rattus norvegicus
Test: Open TG-GATES - Regimen: Single
Format: toxicity, organism-based, Sprague-Dawley
Design: regimen Single, gender Male, age 6 weeks
Conditions: in vivo, ip, 0 mg/kg, route intraperitoneal injection, dose level Control; for APTT / Bas / Eos / Fbg / Hb / Ht / Lym / MCH / MCHC / MCV / Mono / Neu / PT / Plat / RBC / Ret / WBC: tissue Blood; for KIDNEY_L / KIDNEY_R / KIDNEY_TOTAL: tissue Kidney; for LIVER: tissue Liver; for A/G / ALP / ALT / AST / BUN / CRE / Ca / Cl / DBIL / GLC / IP / K / LDH / Na / PL / RALB / TBIL / TC / TG / TP / gamma-GTP: tissue Plasma

**Q.** Which results are given for `CCCCS(=N)(=O)CCC(N)C(=O)O` (configuration not stated) [BUTHIONINE SULFOXIMINE]?
**A.** TERMINAL_BW (3 h): 217.4 g; APTT (3 h): 16.3 s; Bas (3 h): 0%; Eos (3 h): 0.6%; Fbg (3 h): 214.6 mg/dL; Hb (3 h): 13.1 g/dL; Ht (3 h): 39.2%; Lym (3 h): 66.4%; MCH (3 h): 21.9 pg; MCHC (3 h): 33.4%; MCV (3 h): 65.6 fL; Mono (3 h): 10%; Neu (3 h): 23.4%; PT (3 h): 11.9 s; Plat (3 h): 108.9 x10_4/uL; RBC (3 h): 598.2 x10_4/ul; Ret (3 h): 8.3%; WBC (3 h): 104.5 x10_2/uL; KIDNEY_L (3 h): 1 g; KIDNEY_R (3 h): 1 g; KIDNEY_TOTAL (3 h): 2 g; LIVER (3 h): 10.4 g; A/G (3 h): 2.3; ALP (3 h): 962.6 IU/L; ALT (3 h): 44 IU/L; AST (3 h): 81 IU/L; BUN (3 h): 12.8 mg/dL; CRE (3 h): 0.5 mg/dL; Ca (3 h): 10.9 mg/dL; Cl (3 h): 104.4 meq/L; DBIL (3 h): 0.086 mg/dL; GLC (3 h): 190 mg/dL; IP (3 h): 10.5 mg/dL; K (3 h): 4.6 meq/L; LDH (3 h): 100.4 IU/L; Na (3 h): 140.6 meq/L; PL (3 h): 139.6 mg/dL; RALB (3 h): 3.7 g/dL; TBIL (3 h): 0.4 mg/dL; TC (3 h): 76 mg/dL; TG (3 h): 63.8 mg/dL; TP (3 h): 5.4 g/dL; gamma-GTP (3 h): 1.2 IU/L; TERMINAL_BW (6 h): 211.9 g; APTT (6 h): 16.7 s; Bas (6 h): 0%; Eos (6 h): 0.8%; Fbg (6 h): 221 mg/dL; Hb (6 h): 13.3 g/dL; Ht (6 h): 39.9%; Lym (6 h): 68.2%; MCH (6 h): 21.9 pg; MCHC (6 h): 33.3%; MCV (6 h): 65.9 fL; Mono (6 h): 5%; Neu (6 h): 26%; PT (6 h): 10.8 s; Plat (6 h): 112.3 x10_4/uL; RBC (6 h): 605.2 x10_4/ul; Ret (6 h): 9.1%; WBC (6 h): 106.4 x10_2/uL; KIDNEY_L (6 h): 1 g; KIDNEY_R (6 h): 1 g; KIDNEY_TOTAL (6 h): 1.9 g; LIVER (6 h): 9.5 g; A/G (6 h): 2; ALP (6 h): 754.6 IU/L; ALT (6 h): 38.2 IU/L; AST (6 h): 68 IU/L; BUN (6 h): 11.4 mg/dL; CRE (6 h): 0.7 mg/dL; Ca (6 h): 10.9 mg/dL; Cl (6 h): 105.6 meq/L; DBIL (6 h): 0.014 mg/dL; GLC (6 h): 197.6 mg/dL; IP (6 h): 9.8 mg/dL; K (6 h): 4.9 meq/L; LDH (6 h): 58.2 IU/L; Na (6 h): 140.2 meq/L; PL (6 h): 139.4 mg/dL; RALB (6 h): 3.5 g/dL; TBIL (6 h): 0.4 mg/dL; TC (6 h): 78.2 mg/dL; TG (6 h): 62.8 mg/dL; TP (6 h): 5.3 g/dL; gamma-GTP (6 h): 1.6 IU/L; TERMINAL_BW (9 h): 214.6 g; APTT (9 h): 17.1 s; Bas (9 h): 0%; Eos (9 h): 1%; Fbg (9 h): 231 mg/dL; Hb (9 h): 13.4 g/dL; Ht (9 h): 40.5%; Lym (9 h): 74.8%; MCH (9 h): 21.5 pg; MCHC (9 h): 33%; MCV (9 h): 65.1 fL; Mono (9 h): 5.6%; Neu (9 h): 19%; PT (9 h): 11 s; Plat (9 h): 114 x10_4/uL; RBC (9 h): 622.2 x10_4/ul; Ret (9 h): 9.5%; WBC (9 h): 101.1 x10_2/uL; KIDNEY_L (9 h): 1 g; KIDNEY_R (9 h): 1 g; KIDNEY_TOTAL (9 h): 1.9 g; LIVER (9 h): 8.9 g; A/G (9 h): 2.1; ALP (9 h): 838 IU/L; ALT (9 h): 34.4 IU/L; AST (9 h): 65.8 IU/L; BUN (9 h): 12.8 mg/dL; CRE (9 h): 0.5 mg/dL; Ca (9 h): 11 mg/dL; Cl (9 h): 106 meq/L; DBIL (9 h): 0.006 mg/dL; GLC (9 h): 203.4 mg/dL; IP (9 h): 10.3 mg/dL; K (9 h): 4.9 meq/L; LDH (9 h): 60.8 IU/L; Na (9 h): 139.2 meq/L; PL (9 h): 146.6 mg/dL; RALB (9 h): 3.8 g/dL; TBIL (9 h): 0.3 mg/dL; TC (9 h): 85 mg/dL; TG (9 h): 57 mg/dL; TP (9 h): 5.6 g/dL; gamma-GTP (9 h): 1.2 IU/L; TERMINAL_BW (24 h): 226.3 g; APTT (24 h): 17.2 s; Bas (24 h): 0%; Eos (24 h): 1%; Fbg (24 h): 231.6 mg/dL; Hb (24 h): 13.6 g/dL; Ht (24 h): 41%; Lym (24 h): 75.4%; MCH (24 h): 21.3 pg; MCHC (24 h): 33.1%; MCV (24 h): 64.5 fL; Mono (24 h): 8.4%; Neu (24 h): 15.2%; PT (24 h): 11.4 s; Plat (24 h): 115.5 x10_4/uL; RBC (24 h): 636.4 x10_4/ul; Ret (24 h): 8.8%; WBC (24 h): 88.5 x10_2/uL; KIDNEY_L (24 h): 1 g; KIDNEY_R (24 h): 1 g; KIDNEY_TOTAL (24 h): 2 g; LIVER (24 h): 11 g; A/G (24 h): 1.8; ALP (24 h): 826.4 IU/L; ALT (24 h): 37.8 IU/L; AST (24 h): 63.2 IU/L; BUN (24 h): 17.8 mg/dL; CRE (24 h): 0.5 mg/dL; Ca (24 h): 11.2 mg/dL; Cl (24 h): 103.6 meq/L; DBIL (24 h): 0.008 mg/dL; GLC (24 h): 210.6 mg/dL; IP (24 h): 9 mg/dL; K (24 h): 4.8 meq/L; LDH (24 h): 89.2 IU/L; Na (24 h): 139.6 meq/L; PL (24 h): 163.4 mg/dL; RALB (24 h): 3.7 g/dL; TBIL (24 h): 0.3 mg/dL; TC (24 h): 83.2 mg/dL; TG (24 h): 109.2 mg/dL; TP (24 h): 5.8 g/dL; gamma-GTP (24 h): 1.6 IU/L
